# ChEMBL document CHEMBL3044672, “N9- and N7-(Chloromethyl Phenymethyl)Chloropurine Derivatives from , '-Dichloroxylenes: Synthesis and Anticancer Activity” (2005)
# Experiments:
# Assay type in all cases: functional
# [1] = Cytotoxicity against Homo sapiens (human) NCI-ADR-RES cells after 48 hr by sulforhodamine B assay
# U-251 = assay: Cytotoxicity against Homo sapiens (human) U251 cells after 48 hr by sulforhodamine B assay; settings: U-251, 48 h
# K562 = assay: Cytotoxicity against Homo sapiens (human) K562 cells after 48 hr by sulforhodamine B assay; settings: K562, 48 h
# OVCAR-3 = assay: Cytotoxicity against Homo sapiens (human) OVCAR3 cells after 48 hr by sulforhodamine B assay; settings: OVCAR-3, 48 h
# HCT-116 = assay: Cytotoxicity against Homo sapiens (human) HCT116 cells after 48 hr by sulforhodamine B assay; settings: HCT-116, 48 h
# NCI-H23 = assay: Cytotoxicity against Homo sapiens (human) NCI-H23 cells after 48 hr by sulforhodamine B assay; settings: NCI-H23, 48 h
# SK-MEL-5 = assay: Cytotoxicity against Homo sapiens (human) SK-MEL-5 cells after 48 hr by sulforhodamine B assay; settings: SK-MEL-5, 48 h
# KM12 = assay: Cytotoxicity against Homo sapiens (human) KM12 cells after 48 hr by sulforhodamine B assay; settings: KM12, 48 h
# CAKI-1 = assay: Cytotoxicity against Homo sapiens (human) Caki1 cells after 48 hr by sulforhodamine B assay; settings: CAKI-1, 48 h
# MOLT-4 = assay: Cytotoxicity against Homo sapiens (human) MOLT4 cells after 48 hr by sulforhodamine B assay; settings: MOLT-4, 48 h
# UACC-257 = assay: Cytotoxicity against Homo sapiens (human) UACC257 cells after 48 hr by sulforhodamine B assay; settings: UACC-257, 48 h
# NCI-H226 = assay: Cytotoxicity against Homo sapiens (human) NCI-H226 cells after 48 hr by sulforhodamine B assay; settings: NCI-H226, 48 h
# SN12C = assay: Cytotoxicity against Homo sapiens (human) SN12C cells after 48 hr by sulforhodamine B assay
# MDA-MB-435 = assay: Cytotoxicity against Homo sapiens (human) MDA-MB-435 cells after 48 hr by sulforhodamine B assay; settings: MDA-MB-435, 48 h
# NCI-H322M = assay: Cytotoxicity against Homo sapiens (human) NCI-H322M cells after 48 hr by sulforhodamine B assay
# SF-268 = assay: Cytotoxicity against Homo sapiens (human) SF268 cells assessed as cell growth at 10^-4 M after 48 hr by […] assay; settings: SF-268, 48 h, read-out: Activity
# HOP-62 = assay: Cytotoxicity against Homo sapiens (human) HOP62 cells after 48 hr by sulforhodamine B assay; settings: HOP-62, 48 h
# MDA-MB-231 = assay: Cytotoxicity against Homo sapiens (human) MDA-MB-231 cells after 48 hr by sulforhodamine B assay; settings: MDA-MB-231, 48 h
# OVCAR-4 = assay: Cytotoxicity against Homo sapiens (human) OVCAR4 cells after 48 hr by sulforhodamine B assay; settings: OVCAR-4, 48 h
# COLO 205 = assay: Cytotoxicity against Homo sapiens (human) COLO205 cells after 48 hr by sulforhodamine B assay; settings: COLO 205, 48 h
# UACC-62 = assay: Cytotoxicity against Homo sapiens (human) UACC62 cells after 48 hr by sulforhodamine B assay; settings: UACC-62, 48 h
# HCC 2998 = assay: Cytotoxicity against Homo sapiens (human) HCC2998 cells after 48 hr by sulforhodamine B assay; settings: HCC 2998, 48 h
# IGROV-1 = assay: Cytotoxicity against Homo sapiens (human) IGROV1 cells after 48 hr by sulforhodamine B assay; settings: IGROV-1, 48 h
# RXF 393 = assay: Cytotoxicity against Homo sapiens (human) RXF393 cells after 48 hr by sulforhodamine B assay; settings: RXF 393, 48 h
# EKVX = assay: Cytotoxicity against Homo sapiens (human) EKVX cells after 48 hr by sulforhodamine B assay
# PC-3 = assay: Cytotoxicity against Homo sapiens (human) PC3 cells after 48 hr by sulforhodamine B assay; settings: PC-3, 48 h
# A549 = assay: Cytotoxicity against Homo sapiens (human) A549 cells after 48 hr by sulforhodamine B assay; settings: A549, 48 h
# SK-MEL-2 = assay: Cytotoxicity against Homo sapiens (human) SK-MEL-2 cells after 48 hr by sulforhodamine B assay; settings: SK-MEL-2, 48 h
# HT-29 = assay: Cytotoxicity against Homo sapiens (human) HT-29 cells after 48 hr by sulforhodamine B assay; settings: HT-29, 48 h
# SF-539 = assay: Cytotoxicity against Homo sapiens (human) SF539 cells after 48 hr by sulforhodamine B assay; settings: SF-539, 48 h
# NCI-H522 = assay: Cytotoxicity against Homo sapiens (human) NCI-H522 cells after 48 hr by sulforhodamine B assay; settings: NCI-H522, 48 h
# [2] = read-out: LC50 (the source's name)
smiles,measurement,setting,value
ClCc1cccc(Cn2cnc3ncnc(Cl)c32)c1,GI50,[1],2.75 µM
same,LC50 (concentration killing 50% of cells),[1],81 µM
same,TGI,[1],9.77 µM
same,GI50,U-251,1.94 µM
same,LC50 (concentration killing 50% of cells),U-251,> 100 µM
same,TGI,U-251,3.98 µM
same,GI50,K562,16.6 µM
same,TGI,K562,47.9 µM
same,CC50,K562; [2],> 100 µM
same,GI50,OVCAR-3,1.77 µM
same,LC50,OVCAR-3,43.6 µM
same,TGI,OVCAR-3,3.23 µM
same,GI50,HCT-116,1.77 µM
same,TGI,HCT-116,5.24 µM
same,CC50,HCT-116; [2],9.54 µM
same,GI50,NCI-H23,1.23 µM
same,TGI,NCI-H23,3.38 µM
same,CC50,NCI-H23; [2],5.88 µM
same,GI50,SK-MEL-5,4.67 µM
same,LC50,SK-MEL-5,45.7 µM
same,TGI,SK-MEL-5,18.2 µM
same,GI50,KM12,1.86 µM
same,TGI,KM12,3.31 µM
same,CC50,KM12; [2],67.6 µM
same,GI50,CAKI-1,2.13 µM
same,TGI,CAKI-1,4.07 µM
same,CC50,CAKI-1; [2],> 100 µM
same,GI50,MOLT-4,10.7 µM
same,TGI,MOLT-4,29.5 µM
same,CC50,MOLT-4; [2],81.3 µM
same,GI50,UACC-257,1.94 µM
same,LC50 (concentration killing 50% of cells),UACC-257,18.6 µM
same,TGI,UACC-257,5.49 µM
same,GI50,NCI-H226,3.16 µM
same,TGI,NCI-H226,8.7 µM
same,CC50,NCI-H226; [2],9.33 µM
same,GI50,SN12C,7.07 µM
same,LC50 (50% lethal concentration),SN12C,6.16 µM
same,TGI,SN12C,20.4 µM
same,GI50,MDA-MB-435,3.46 µM
same,LC50,MDA-MB-435,39.8 µM
same,TGI,MDA-MB-435,12.9 µM
same,GI50,NCI-H322M,1.99 µM
same,TGI,NCI-H322M,3.46 µM
same,CC50,NCI-H322M; [2],8.54 µM
same,growth at 100 µM,SF-268,0%
same,GI50,HOP-62,2.18 µM
same,TGI,HOP-62,3.98 µM
same,CC50,HOP-62; [2],7.41 µM
same,GI50,MDA-MB-231,1.73 µM
same,LC50,MDA-MB-231,6.76 µM
same,TGI,MDA-MB-231,3.38 µM
same,GI50,OVCAR-4,4.16 µM
same,LC50 (concentration killing 50% of cells),OVCAR-4,46.8 µM
same,TGI,OVCAR-4,15.8 µM
same,GI50,COLO 205,2.63 µM
same,TGI,COLO 205,> 100 µM
same,CC50,COLO 205; [2],6.3 µM
same,GI50,UACC-62,2.18 µM
same,LC50 (concentration causing 50% net cell kill),UACC-62,38.9 µM
same,TGI,UACC-62,5.37 µM
same,GI50,HCC 2998,1.69 µM
same,TGI,HCC 2998,3.23 µM
same,CC50,HCC 2998; [2],40.7 µM
same,GI50,IGROV-1,3.38 µM
same,LC50,IGROV-1,5.88 µM
same,TGI,IGROV-1,13.8 µM
same,GI50,RXF 393,2.04 µM
same,TGI,RXF 393,17.4 µM
same,CC50,RXF 393; [2],47.9 µM
same,GI50,EKVX,13.8 µM
same,TGI,EKVX,29.5 µM
same,CC50,EKVX; [2],64.6 µM
same,GI50,PC-3,2.13 µM
same,LC50 (concentration causing 50% cell kill),PC-3,63.1 µM
same,TGI,PC-3,5.37 µM
same,GI50,A549,17.4 µM
same,TGI,A549,39.8 µM
same,CC50,A549; [2],91.2 µM
same,GI50,SK-MEL-2,5.75 µM
same,LC50 (concentration killing 50% of cells),SK-MEL-2,6.76 µM
same,TGI,SK-MEL-2,22.9 µM
same,GI50,HT-29,2.88 µM
same,TGI,HT-29,> 100 µM
same,CC50,HT-29; [2],6.02 µM
same,GI50,SF-539,19.9 µM
same,TGI,SF-539,36.3 µM
same,GI50,NCI-H522,6.16 µM
same,TGI,NCI-H522,24 µM
same,CC50,NCI-H522; [2],> 100 µM
